Assay results reported in ChEMBL document CHEMBL1201862, “PubChem BioAssay data set” (2004).
Active and inactive are the calls of the source.

Columns and labels:
Protein skinhead-1 = target: T1, Protein skinhead-1 (Caenorhabditis elegans, UniProt P34707); type: functional
T1 sequence (P34707 whole entry): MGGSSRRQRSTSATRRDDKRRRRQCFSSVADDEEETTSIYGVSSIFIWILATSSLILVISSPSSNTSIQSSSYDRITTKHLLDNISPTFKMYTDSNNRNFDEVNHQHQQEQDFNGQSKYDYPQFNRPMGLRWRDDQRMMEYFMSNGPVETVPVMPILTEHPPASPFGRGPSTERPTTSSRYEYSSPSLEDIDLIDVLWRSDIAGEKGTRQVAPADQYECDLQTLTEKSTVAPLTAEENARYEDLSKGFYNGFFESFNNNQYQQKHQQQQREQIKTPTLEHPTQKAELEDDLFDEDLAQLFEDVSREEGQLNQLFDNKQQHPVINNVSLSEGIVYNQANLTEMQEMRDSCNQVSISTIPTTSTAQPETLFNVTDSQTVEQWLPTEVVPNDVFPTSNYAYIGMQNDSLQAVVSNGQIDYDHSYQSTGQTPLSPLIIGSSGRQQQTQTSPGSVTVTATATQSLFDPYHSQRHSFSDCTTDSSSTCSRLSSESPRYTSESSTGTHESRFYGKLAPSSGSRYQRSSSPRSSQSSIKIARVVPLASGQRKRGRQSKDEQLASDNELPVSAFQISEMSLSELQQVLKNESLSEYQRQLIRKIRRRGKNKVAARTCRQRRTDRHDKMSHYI

[1] = viability of PTEN-deleted HCT116 cells – cell-based, HCT116 PTEN knockout, dose response (AID 1047); type: functional;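 further: HCT116 colon tumor cells with PTEN knocked out; cells exposed to compound for 60 hours before readout; potency for loss of cell viability measured by luminescence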
[2] = viability of HCT116 lacking mutant beta-catenin – cell-based, human colon tumor, dose response (AID 1045); type: functional;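 further: HCT116 colon tumor cells with beta catenin knocked out; cells exposed to compound for 60 hours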
[3] = Luminescence Cell-Based Dose Retest to Confirm Inhibitors of Cancer Stem Cells. [Related pubchem assays (depositor defined):AID2717, AID2721]; type: functional; settings: Homo sapiens
cells [4] = type: functional, cell-based
[5] = target: T2, Trace amine-associated receptor 1 (Homo sapiens, UniProt Q96RJ0); experiment: Fluorescence-based cell-based high throughput dose response assay to identify agonists of the human trace amine associated receptor 1 (TAAR1).; type: functional
T2 sequence (Q96RJ0 whole entry): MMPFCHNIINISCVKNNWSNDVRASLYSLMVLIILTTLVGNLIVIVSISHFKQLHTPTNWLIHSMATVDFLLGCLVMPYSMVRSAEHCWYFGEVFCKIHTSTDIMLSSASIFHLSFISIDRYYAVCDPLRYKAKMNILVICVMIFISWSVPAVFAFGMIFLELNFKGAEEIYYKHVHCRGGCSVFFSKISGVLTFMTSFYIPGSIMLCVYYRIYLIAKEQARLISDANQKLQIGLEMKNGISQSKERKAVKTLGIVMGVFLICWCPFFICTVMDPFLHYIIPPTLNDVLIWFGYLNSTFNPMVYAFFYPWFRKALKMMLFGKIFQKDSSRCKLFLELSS

[6] = target: T2, Trace amine-associated receptor 1; experiment: Counterscreen for agonists of the human trace amine associated receptor 1 (hTAAR1): Fluorescence-based cell-based high throughput dose response assay to identify hTAAR1 agonist that also desensitize TAAR1 receptor response.; type: functional
cells [7] = type: functional, cell-based; remark: listed apart in the source
[8] = target: T3, RNA-binding protein pos-1 (Caenorhabditis elegans, UniProt G5EF15); experiment: disruptors of C. elegans POS-1 RNA interaction – biochemical, fluorescence polarization, dose response (AID 1964);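 further: purified POS-1 fused to maltose binding protein made in E. coli; potency of compounds blocking POS-1 binding to fluorescent RNA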
T3 sequence (G5EF15 whole entry): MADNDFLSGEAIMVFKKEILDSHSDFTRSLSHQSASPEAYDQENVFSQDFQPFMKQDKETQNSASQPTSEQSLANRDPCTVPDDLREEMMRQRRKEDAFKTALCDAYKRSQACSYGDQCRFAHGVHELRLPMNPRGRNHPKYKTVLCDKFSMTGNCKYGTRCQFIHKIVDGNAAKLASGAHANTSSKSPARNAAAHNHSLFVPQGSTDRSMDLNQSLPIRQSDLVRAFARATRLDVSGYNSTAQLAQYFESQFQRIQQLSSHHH

[9] = target: T4, Zinc finger protein mex-5 (Caenorhabditis elegans, UniProt Q9XUB2); experiment: potency of MEX-5 RNA-binding blockers – biochemical, C. elegans, fluorescence polarization, dose response (AID 1960)
T4 sequence (Q9XUB2 whole entry): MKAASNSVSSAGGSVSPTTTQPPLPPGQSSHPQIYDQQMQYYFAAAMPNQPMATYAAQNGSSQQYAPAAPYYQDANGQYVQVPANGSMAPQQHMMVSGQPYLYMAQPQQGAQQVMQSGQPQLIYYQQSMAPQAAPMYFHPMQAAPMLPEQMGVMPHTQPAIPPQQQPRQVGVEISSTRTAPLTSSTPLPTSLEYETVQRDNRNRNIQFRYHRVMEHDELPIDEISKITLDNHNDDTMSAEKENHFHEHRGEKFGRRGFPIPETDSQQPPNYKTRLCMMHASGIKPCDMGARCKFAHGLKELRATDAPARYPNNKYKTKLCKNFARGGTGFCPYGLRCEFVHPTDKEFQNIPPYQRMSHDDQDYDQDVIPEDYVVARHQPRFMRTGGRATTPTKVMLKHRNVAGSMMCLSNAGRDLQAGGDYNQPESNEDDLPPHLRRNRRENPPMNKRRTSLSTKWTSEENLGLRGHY

[10] = off-target signal loss in HeLa-CEM21 co-culture – HeLa F-luc CTL cells, cherry-picked, counter-screen for HIV-1 Env fusion inhibitor project, dose response (AID 652040); type: functional, cell-based;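 further: potency for signal decrease marking cytotoxic or nonspecific inhibition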
[11] = HIV-1 AD8 envelope cell-cell fusion blockers – cherry-pick, dose response (AID 652062); type: functional, cell-based;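 further: luciferase signal from cell-cell fusion driven by HIV-1 clade B AD8 Env; potency is for inhibitors of fusion seen as a drop in luminescence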
[12] = target: T5, Mannose-6-phosphate isomerase (Homo sapiens, UniProt P34949); experiment: MPI inhibition at elevated mannose 6-phosphate – biochemical, fluorescence intensity, high mannose 6-phosphate, primary screen (AID 1220)
T5 sequence (P34949 whole entry): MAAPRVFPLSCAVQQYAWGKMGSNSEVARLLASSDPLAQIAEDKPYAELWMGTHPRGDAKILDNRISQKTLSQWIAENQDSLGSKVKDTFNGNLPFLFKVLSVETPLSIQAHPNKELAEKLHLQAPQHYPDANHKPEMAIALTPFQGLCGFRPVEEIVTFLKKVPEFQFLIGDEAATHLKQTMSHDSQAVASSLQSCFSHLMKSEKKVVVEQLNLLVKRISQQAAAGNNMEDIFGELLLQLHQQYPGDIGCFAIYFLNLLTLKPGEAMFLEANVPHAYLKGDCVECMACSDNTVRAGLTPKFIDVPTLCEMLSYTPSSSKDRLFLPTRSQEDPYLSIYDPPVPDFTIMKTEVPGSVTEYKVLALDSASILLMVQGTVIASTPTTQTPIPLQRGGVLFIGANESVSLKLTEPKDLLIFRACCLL

[13] = blockers of bursicon-stimulated LGR2 cAMP reporter – cell-based, HEK293, CRE-luciferase reporter, cherry pick, set 2, dose response (AID 743343); type: functional;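 further: transfected cells were stimulated with diluted bursicon conditioned medium after compound addition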
[14] = blockade of melanocortin 4 receptor signaling – cell-based, plate reader, cherry pick, counter-screen for LGR2 antagonist project, dose response (AID 743444); type: functional;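 further: transfected HEK 293 cells stimulated with alpha-MSH peptide; potency of inhibitors of the alpha-MSH evoked signal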

**Q.** Which IC50 (Protein skinhead-1) does the source give for `c1ccc(-c2csc(-c3cccnc3)n2)cc1` here?
**A.** The IC50 was 40.4 µM (active).

**Q.** What does the source list for `Cc1cccc(-c2cc3nc(C)cc(N4CC(C)CC(C)C4)n3n2)c1` (stereo not given)?
**A.** EC50 [1]: 27.8 µM (active); EC50 [2]: 43.9 µM (active); AC50 [3]: 5.01 µM (active); IC50 (cells [4]): > 29.9 µM (inactive); EC50 [5]: 7.1 µM (active); IC50 [6]: > 29.9 µM (inactive); EC50 (cells [7]): > 29.9 µM (inactive)

**Q.** Which EC50 [8] does the source give for `CCCn1c(O)c(C#N)c(C)c(CN2CCCC(C)C2)c1=O` (stereo not given) here?
**A.** Its EC50 is > 300 µM (inconclusive).

**Q.** And the EC50 [9]?
**A.** The EC50 was 6.59 µM (active).

**Q.** And the IC50 (cells [4])?
**A.** Its IC50 is > 29.9 µM (inactive).

**Q.** And the EC50 [5]?
**A.** The EC50 was 3.04 µM (active).

**Q.** And the IC50 [6]?
**A.** The IC50 was 13 µM (inactive).

**Q.** And the EC50 (cells [7])?
**A.** The EC50 was > 29.9 µM (inactive).

**Q.** For `Cn1c(=O)oc2cc(S(=O)(=O)NCc3ccncc3)ccc21`, which AC50 [10] is on record?
**A.** The AC50 was 58.5 µM (active).

**Q.** And the AC50 [11]?
**A.** Its AC50 is 17.4 µM (active).

**Q.** Which results are given for `Cc1nc(NCCc2ccccc2)c2nnn(Cc3ccccc3Cl)c2n1`?
**A.** IC50 (cells [4]): > 29.9 µM (inactive); EC50 [5]: 0.59 µM (active); IC50 [6]: 3.51 µM (active); EC50 (cells [7]): > 29.9 µM (inactive)

**Q.** Which IC50 (Protein skinhead-1) does the source give for `NC(=O)C1CCN(c2oc(-c3ccccc3F)nc2S(=O)(=O)c2ccc(Cl)cc2)CC1` here?
**A.** The IC50 was > 100 µM (inactive).

**Q.** For `O=C(Nc1ccc2oc(-c3ccccc3)nc2c1)c1cccnc1`, which IC50 (Protein skinhead-1) is on record?
**A.** Its IC50 is > 100 µM (inactive).

**Q.** For `COC(=O)C1=C(C(=O)OC)SC(=C2C(=S)C(C)(C)N(C(=O)C(C)C)c3ccccc32)S1`, which IC50 [12] is on record?
**A.** Its IC50 is 7.38 µM (active).

**Q.** With `Cc1ccc(-c2cc(C(=O)N3CCOCC3)no2)cc1` as the molecule, how does the AC50 [13] read?
**A.** The AC50 was 2.95 µM (active).

**Q.** And the AC50 [14]?
**A.** Its AC50 is 2.81 µM (active).

**Q.** Which IC50 (cells [4]) does the source give for `O=C(NCCc1ccccc1)c1ccc(CS(=O)(=O)Cc2ccccc2F)o1` here?
**A.** The IC50 was 17.7 µM (inactive).

**Q.** What about the EC50 [5] of the same molecule?
**A.** The EC50 was 2.78 µM (active).

**Q.** And the IC50 [6]?
**A.** The IC50 was 5.69 µM (active).

**Q.** What about the EC50 (cells [7]) of the same molecule?
**A.** The EC50 was > 29.9 µM (inactive).

**Q.** For `C=CCn1c(SCC(=O)c2c(N)n(C)c(=O)n(C)c2=O)nnc1-c1ccoc1C`, which IC50 (Protein skinhead-1) is on record?
**A.** Its IC50 is > 100 µM (inactive).

**Q.** Which IC50 (cells [4]) does the source give for `Cc1cccc(NC2=NCC(=O)N2CCc2ccccc2)c1` here?
**A.** Its IC50 is > 29.9 µM (inactive).

**Q.** And the EC50 [5]?
**A.** The EC50 was 0.866 µM (active).

**Q.** What about the IC50 [6] of the same molecule?
**A.** Its IC50 is 7.06 µM (active).

**Q.** And the EC50 (cells [7])?
**A.** Its EC50 is > 29.9 µM (inactive).

**Q.** Which IC50 (Protein skinhead-1) does the source give for `C=CCSc1nnc2c(n1)-c1cccc3cccc-2c13` here?
**A.** The IC50 was 18.2 µM (active).

**Q.** For `NC(Cc1ccc(F)cc1)c1csc(Nc2ccc(S(N)(=O)=O)cc2)n1` (stereo not given), which IC50 (cells [4]) is on record?
**A.** The IC50 was > 29.9 µM (inactive).

**Q.** What about the EC50 [5] of the same molecule?
**A.** The EC50 was 5.18 µM (active).

**Q.** What about the IC50 [6] of the same molecule?
**A.** Its IC50 is > 29.9 µM (inactive).

**Q.** And the EC50 (cells [7])?
**A.** Its EC50 is > 29.9 µM (inactive).

**Q.** With `COc1ccc(O)c(/C=N/c2sc(C)c(C)c2C#N)c1` as the molecule, how does the IC50 [12] read?
**A.** The IC50 was > 50 µM (not active).
